Reference: PMC5238392, “Origin of anti-tumor activity of the cysteine-containing GO peptides and further optimization of their cytotoxic properties” (Scientific Reports, 2017)

Tests used:
HT-1080 cells [1] = experiment: H2DCFDA intracellular ROS measurement, HT-1080; type: cell-based, human; conditions: 5 μM, 30 min after application
Protocol: Having established these premises, we repeated the measurements using the ROS-sensitive probe H2DCFDA instead of DCFDA. We have observed small, but statistically significant difference between the HT-1080 cells treated by GO-203 and control cells. Specifically, 30 min after application of the peptide the fluorescence signal from the treated cells was ca. 20% lower than the control, 82 ± 6 vs. 100 ± 7 (arbitrary units). The drop in fluorescence from cells that have been treated with GO-203 should be unequivocally attributed to the decreased level of ROS. The effect is small and unlikely to be the source of GO-203 cytotoxic activity. […] The detected drop in ROS level was below the level of statistical significance, 98 ± 3 vs. 100 ± 11 (see Fig. S3). […]
(§1) The cells were seeded into 35-mm Nunc culture dishes (Thermo Scientific, USA) at 1.2 × 10^5 cells per dish and allowed to attach for 24 h. […] After that GO-203 was added directly to the suspension and cell fluorescence was measured by flow cytometry at multiple time points during the following 2 hours. […] Cell fluorescence was then immediately measured by flow cytometry. […]
Cell fluorescence was measured using CytoFLEX (Beckman Coulter, USA) flow cytometer equipped with 3 lasers (405, 488 and 633 nm). […] Mean fluorescence intensity from 10,000 cells was acquired. […]

HT-1080 cells [2] = experiment: Rhodamine 123 mitochondrial membrane potential, HT-1080; type: cell-based, human
Source text: In broad terms, apoptosis is classified into two fundamental modes: mitochondrial pathway and death receptor pathway. In the former mechanism, apoptotic signals lead to a loss of mitochondrial membrane potential, termination of mitochondrial ATP synthesis, overproduction of reactive oxygen species (ROS) and their release into cytosol along with a number of pro-apoptotic proteins that are normally confined to the intermembrane space of the mitochondria. To determine whether this mechanism is relevant for GO-203-induced cell death, we have analyzed the time variation of mitochondrial membrane potential and cellular level of ROS over the time interval of 2 h following the addition of the peptide. Toward this goal, the cells were preloaded with Rhodamine 123 or carboxy-H2DCFDA fluorescent dyes, then washed, suspended in the growth medium, and treated with GO-203. The fluorescence was measured concurrently with the side angle light scatter.
Only at 90–100 min we observe a moderate decrease of the fluorescence signal from the treated cells, which indicates the drop in mitochondrial membrane potential. As discussed above, the onset of apoptosis in HT-1080 occurs considerably earlier than that. […] Therefore we assume that mitochondrial membrane permeabilization (MMP) occurs relatively late in the game and is unlikely to be a key element of the GO-203-induced apoptosis.
Finally, the same experimental scheme as described above for H2DCFDA/DCFDA measurements was also used with Rhodamine 123. […] The same observation has been made for ZR-75-1.
as §1

[3] = suspended HT-1080, one-time 5 μM dose

Substance: [R]9CQCRRKN [GO-203, in clinical trials]
- Decrease of H2DCFDA fluorescence signal versus control (HT-1080 cells [1]): ca. 20%
- H2DCFDA fluorescence signal (ROS level) (HT-1080 cells [1]; control 100 ± 7, mean and SD): 82 ± 6 arbitrary units
- Mitochondrial membrane potential (Rhodamine 123) (HT-1080 cells [2]; HT-1080, 30 min after application, same scheme as H2DCFDA/DCFDA measurements): fully maintained
- Time for which mitochondrial retention of Rhodamine 123 remains the same as control (HT-1080 cells [2]; [3]): at least 70 min
- Time of moderate decrease of Rhodamine 123 fluorescence (drop in mitochondrial membrane potential) (HT-1080 cells [2]; [3]): 90 to 100 min
